% of control and % of inhibition data for seven compounds are collected here from ChEMBL document CHEMBL5465560, “Selectivity Literature for EUbOPEN Chemogenomic Library” (2024).

Assay [1] concerns CDK12/Cyclin K (Homo sapiens), O75909+Q9NYV4 [R722C]. Description: (§1) Selectivity interaction (ProQinase) EUB0000171b CDK12. It counts as protein-complex assay. The note with it: at 5 µM.
For assay [2], the target named is CDK12/Cyclin K (Homo sapiens) (UniProt O75909+Q9NYV4). The assay is described as §1. It counts as protein-complex assay.
Assay [3] has as its system Epidermal growth factor receptor (Homo sapiens), P00533 [UNDEFINED MUTATION]. Nature of the assay: Selectivity interaction (KinomeScan (DiscoverX)) EUB0000655a EGFR. The note with it: at 10 µM.
Assay [4] concerns the target T1, Ephrin type-A receptor 3 (Homo sapiens) (UniProt P29320).
T1 sequence (whole entry): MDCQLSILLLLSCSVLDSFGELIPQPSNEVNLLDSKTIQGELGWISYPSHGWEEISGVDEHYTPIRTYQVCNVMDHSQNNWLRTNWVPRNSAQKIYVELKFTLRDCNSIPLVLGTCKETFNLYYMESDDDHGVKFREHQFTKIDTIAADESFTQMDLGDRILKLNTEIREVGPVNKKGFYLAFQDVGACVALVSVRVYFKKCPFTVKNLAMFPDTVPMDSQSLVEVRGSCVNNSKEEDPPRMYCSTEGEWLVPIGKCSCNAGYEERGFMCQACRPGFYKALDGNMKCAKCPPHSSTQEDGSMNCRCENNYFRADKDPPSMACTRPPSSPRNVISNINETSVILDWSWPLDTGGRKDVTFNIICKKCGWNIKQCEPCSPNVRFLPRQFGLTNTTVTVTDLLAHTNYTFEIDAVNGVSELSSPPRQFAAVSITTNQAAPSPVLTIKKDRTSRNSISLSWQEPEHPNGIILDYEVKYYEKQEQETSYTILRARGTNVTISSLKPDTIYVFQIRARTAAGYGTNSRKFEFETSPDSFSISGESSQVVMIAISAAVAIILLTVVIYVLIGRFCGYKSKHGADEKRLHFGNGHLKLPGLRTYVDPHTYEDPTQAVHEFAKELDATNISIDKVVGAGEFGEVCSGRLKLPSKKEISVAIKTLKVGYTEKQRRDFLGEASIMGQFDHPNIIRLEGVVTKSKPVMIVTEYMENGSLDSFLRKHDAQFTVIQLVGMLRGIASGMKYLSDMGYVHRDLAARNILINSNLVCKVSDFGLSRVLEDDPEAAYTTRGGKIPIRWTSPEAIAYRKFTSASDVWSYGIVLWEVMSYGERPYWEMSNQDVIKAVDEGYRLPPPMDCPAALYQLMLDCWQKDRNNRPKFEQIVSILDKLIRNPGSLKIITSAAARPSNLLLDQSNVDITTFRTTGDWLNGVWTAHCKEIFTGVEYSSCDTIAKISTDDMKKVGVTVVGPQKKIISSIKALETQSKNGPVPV
Description: Selectivity interaction (KinomeScan (DiscoverX)) EUB0000045b EPHA3.

For assay [5], the target named is Vascular endothelial growth factor receptor 3 (Homo sapiens, UniProt P35916). Description: Selectivity interaction (KinomeScan (DiscoverX)) EUB0000666a FLT4. As to conditions: at 10 µM.
Assay [6] concerns the target Serine/threonine-protein kinase MARK2 (Homo sapiens) (UniProt Q7KZI7). Nature of the assay: Selectivity interaction (SelectScreen profiling (Invitrogen)) EUB0000607a MARK2. The note with it: at 2 µM.
In assay [7] the target is T2, Serine/threonine-protein kinase Nek9 (Homo sapiens) (UniProt Q8TD19).
T2 sequence (whole entry): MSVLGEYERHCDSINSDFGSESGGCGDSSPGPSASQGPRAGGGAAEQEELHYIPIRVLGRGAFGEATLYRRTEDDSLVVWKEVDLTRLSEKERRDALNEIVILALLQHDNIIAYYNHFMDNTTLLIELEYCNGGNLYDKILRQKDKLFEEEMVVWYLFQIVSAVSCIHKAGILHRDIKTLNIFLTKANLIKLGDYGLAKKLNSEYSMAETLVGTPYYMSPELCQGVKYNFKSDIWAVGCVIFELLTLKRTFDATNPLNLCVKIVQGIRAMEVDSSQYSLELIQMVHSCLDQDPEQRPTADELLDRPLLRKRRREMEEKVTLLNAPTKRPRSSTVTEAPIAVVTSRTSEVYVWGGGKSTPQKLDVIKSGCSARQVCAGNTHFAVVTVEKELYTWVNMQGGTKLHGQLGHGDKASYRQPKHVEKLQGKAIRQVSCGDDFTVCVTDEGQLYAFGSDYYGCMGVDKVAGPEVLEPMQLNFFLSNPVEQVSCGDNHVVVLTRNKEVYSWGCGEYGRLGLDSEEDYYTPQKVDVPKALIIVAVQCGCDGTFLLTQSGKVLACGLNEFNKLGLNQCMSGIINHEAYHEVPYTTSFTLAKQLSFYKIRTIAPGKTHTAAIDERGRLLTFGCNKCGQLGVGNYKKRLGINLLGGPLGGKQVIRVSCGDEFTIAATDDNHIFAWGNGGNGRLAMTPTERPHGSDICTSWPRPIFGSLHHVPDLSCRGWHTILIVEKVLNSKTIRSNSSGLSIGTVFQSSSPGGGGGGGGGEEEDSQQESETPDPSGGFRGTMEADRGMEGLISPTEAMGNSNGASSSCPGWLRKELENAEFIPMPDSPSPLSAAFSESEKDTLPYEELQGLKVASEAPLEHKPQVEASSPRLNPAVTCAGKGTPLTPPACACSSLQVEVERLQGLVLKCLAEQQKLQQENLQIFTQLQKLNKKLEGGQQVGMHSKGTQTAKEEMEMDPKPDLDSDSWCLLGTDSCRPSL
Nature of the assay: Selectivity interaction (ActivX KiNativ screen (kinase selectivity in THP-1 cell lysates)) EUB0000639a NEK9. As to conditions: lysate, at 0.04 µM. The assay is classed as subcellular.

Assay [8] concerns the target Proto-oncogene tyrosine-protein kinase receptor Ret (Homo sapiens, UniProt P07949). Description: Selectivity interaction (Kinase panel (Invitrogen)) EUB0000639a RET. As to conditions: at 200 nM.
Assay [9] has as its target T3, Serine/threonine-protein kinase Chk1 (Homo sapiens) (UniProt O14757).
T3 sequence (whole entry): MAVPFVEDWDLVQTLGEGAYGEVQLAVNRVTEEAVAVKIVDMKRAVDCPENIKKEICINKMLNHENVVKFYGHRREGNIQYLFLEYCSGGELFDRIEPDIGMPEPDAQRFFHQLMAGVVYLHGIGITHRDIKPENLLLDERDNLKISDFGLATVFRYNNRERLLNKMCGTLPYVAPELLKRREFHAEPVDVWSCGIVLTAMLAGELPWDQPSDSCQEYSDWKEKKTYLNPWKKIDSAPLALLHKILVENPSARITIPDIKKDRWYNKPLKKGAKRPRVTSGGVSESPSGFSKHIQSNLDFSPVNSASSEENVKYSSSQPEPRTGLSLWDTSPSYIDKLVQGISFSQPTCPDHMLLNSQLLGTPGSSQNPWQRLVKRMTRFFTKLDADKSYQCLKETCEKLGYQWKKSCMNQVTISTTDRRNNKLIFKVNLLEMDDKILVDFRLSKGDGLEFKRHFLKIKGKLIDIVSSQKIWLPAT
Description: Selectivity interaction (KinomeScan (DiscoverX)) EUB0000618a CHEK1. The note with it: at 10 µM.

Chain of CDK12/Cyclin K (Homo sapiens) (O75909 whole entry, looked up): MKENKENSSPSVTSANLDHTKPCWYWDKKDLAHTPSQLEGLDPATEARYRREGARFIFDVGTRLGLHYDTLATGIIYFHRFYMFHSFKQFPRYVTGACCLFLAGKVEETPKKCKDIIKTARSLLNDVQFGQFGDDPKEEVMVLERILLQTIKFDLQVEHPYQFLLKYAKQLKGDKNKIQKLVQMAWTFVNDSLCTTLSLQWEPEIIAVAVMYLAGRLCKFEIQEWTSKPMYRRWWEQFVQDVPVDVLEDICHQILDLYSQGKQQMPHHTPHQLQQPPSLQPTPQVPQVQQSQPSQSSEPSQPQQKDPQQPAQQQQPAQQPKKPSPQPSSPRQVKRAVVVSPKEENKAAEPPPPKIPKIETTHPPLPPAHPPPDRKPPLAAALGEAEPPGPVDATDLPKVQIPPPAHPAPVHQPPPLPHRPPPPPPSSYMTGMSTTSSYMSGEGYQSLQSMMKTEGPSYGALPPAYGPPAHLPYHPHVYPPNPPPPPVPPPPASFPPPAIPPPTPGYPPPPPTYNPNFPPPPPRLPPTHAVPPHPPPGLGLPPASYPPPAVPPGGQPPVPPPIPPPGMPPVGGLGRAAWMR
Chain of CDK12/Cyclin K (Homo sapiens) (Q9NYV4 whole entry, looked up): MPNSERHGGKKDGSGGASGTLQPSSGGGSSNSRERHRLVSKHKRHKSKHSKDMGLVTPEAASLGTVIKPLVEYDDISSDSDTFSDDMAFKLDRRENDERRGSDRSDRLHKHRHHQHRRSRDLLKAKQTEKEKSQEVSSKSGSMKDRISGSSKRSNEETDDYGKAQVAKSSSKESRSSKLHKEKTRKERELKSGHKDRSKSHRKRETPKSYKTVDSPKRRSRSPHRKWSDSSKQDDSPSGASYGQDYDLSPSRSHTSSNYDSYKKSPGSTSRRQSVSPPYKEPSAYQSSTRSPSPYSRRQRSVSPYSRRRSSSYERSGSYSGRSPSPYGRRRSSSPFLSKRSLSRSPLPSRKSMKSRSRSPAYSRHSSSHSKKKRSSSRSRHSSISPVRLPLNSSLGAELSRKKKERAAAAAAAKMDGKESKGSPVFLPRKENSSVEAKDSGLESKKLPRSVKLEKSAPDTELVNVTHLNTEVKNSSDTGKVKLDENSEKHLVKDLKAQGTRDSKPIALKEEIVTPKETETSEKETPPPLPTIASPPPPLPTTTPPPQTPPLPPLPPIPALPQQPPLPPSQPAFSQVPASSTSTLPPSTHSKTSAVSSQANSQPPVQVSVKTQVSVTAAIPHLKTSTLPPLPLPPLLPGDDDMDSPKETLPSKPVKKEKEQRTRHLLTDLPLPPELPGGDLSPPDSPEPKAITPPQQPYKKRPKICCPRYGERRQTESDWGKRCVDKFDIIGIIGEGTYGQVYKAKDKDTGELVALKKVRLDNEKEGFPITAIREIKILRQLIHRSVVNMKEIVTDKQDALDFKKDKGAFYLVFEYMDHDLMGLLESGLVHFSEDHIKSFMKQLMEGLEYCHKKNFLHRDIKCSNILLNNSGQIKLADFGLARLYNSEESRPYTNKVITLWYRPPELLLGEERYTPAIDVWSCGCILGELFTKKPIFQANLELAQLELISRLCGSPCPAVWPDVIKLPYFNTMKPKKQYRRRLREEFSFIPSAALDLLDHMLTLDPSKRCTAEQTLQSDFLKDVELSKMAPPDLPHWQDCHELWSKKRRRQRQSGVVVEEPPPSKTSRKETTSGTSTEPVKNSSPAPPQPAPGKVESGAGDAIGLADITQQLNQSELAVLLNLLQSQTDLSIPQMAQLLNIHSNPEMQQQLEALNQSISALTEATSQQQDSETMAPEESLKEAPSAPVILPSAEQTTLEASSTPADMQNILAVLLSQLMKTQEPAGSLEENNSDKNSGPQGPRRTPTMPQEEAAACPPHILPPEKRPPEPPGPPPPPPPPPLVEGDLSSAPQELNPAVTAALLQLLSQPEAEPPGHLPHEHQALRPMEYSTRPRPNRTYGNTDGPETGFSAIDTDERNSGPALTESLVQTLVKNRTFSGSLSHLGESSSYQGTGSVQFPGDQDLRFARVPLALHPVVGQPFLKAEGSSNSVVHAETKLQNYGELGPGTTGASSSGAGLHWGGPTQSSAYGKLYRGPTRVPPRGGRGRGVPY
Chain of Epidermal growth factor receptor (Homo sapiens), P00533 [UNDEFINED MUTATION] (P00533 whole entry, looked up, change not shown): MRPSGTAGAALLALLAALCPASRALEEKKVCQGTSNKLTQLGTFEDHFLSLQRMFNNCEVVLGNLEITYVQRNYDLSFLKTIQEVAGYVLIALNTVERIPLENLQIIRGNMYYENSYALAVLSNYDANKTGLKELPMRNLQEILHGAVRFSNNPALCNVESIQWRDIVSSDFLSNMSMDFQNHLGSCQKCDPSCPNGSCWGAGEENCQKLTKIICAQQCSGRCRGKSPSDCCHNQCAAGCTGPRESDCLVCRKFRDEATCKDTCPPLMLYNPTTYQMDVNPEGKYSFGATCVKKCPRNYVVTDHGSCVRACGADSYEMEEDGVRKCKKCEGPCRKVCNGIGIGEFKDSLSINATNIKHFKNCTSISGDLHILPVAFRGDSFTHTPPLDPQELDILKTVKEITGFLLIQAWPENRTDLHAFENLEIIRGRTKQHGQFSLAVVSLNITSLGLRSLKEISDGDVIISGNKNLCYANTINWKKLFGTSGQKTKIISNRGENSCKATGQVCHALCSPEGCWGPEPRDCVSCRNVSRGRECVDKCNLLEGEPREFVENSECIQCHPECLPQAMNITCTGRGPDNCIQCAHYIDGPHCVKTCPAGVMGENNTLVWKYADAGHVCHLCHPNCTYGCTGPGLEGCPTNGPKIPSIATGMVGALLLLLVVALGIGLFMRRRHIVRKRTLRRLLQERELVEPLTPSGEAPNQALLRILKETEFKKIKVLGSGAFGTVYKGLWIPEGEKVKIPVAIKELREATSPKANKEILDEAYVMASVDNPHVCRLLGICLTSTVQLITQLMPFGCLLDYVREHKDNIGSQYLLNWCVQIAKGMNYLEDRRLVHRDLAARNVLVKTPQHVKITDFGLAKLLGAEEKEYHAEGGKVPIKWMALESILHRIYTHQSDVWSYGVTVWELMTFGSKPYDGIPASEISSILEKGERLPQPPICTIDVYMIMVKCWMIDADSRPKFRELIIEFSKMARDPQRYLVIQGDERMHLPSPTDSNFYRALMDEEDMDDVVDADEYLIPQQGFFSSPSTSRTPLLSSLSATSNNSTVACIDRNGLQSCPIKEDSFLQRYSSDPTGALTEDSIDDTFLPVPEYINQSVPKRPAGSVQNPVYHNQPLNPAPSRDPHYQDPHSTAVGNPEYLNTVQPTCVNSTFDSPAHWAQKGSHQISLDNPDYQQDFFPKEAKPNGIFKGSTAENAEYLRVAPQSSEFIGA
Chain of Serine/threonine-protein kinase MARK2 (Homo sapiens) (Q7KZI7 whole entry): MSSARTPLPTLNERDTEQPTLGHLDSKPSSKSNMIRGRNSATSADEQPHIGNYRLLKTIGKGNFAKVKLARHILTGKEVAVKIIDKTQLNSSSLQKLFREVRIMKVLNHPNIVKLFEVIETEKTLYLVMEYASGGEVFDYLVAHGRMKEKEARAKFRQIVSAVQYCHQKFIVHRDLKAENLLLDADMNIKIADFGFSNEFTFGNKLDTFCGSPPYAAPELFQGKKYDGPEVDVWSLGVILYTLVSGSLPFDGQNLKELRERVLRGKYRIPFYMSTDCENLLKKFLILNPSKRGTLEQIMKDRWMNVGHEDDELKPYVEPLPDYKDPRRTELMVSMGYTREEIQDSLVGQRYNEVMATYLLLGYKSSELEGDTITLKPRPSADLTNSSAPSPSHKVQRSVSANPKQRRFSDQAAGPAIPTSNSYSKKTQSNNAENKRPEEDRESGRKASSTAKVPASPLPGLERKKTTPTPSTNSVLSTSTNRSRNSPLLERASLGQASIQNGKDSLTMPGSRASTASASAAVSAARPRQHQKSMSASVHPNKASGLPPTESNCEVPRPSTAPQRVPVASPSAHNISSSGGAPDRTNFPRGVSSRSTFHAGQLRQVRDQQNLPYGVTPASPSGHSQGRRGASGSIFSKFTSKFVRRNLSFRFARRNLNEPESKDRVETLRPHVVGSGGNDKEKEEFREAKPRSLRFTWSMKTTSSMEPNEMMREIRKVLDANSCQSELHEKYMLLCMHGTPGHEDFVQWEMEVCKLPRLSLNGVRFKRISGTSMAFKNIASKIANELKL

As for `C=CC(=O)Nc1cccc(C(=O)Nc2ccc(Nc3cc(-c4[nH]c(SC)nc4C)ccn3)cc2)c1`, the % of control in assay [1] stood at 66%; in assay [2] (at 1 µM), 93%; in assay [2] (at 5 µM) it was 57%.

In [3], `CN(C)CCOc1ccc(-c2nc(-c3ccncc3)c(-c3ccc4c(c3)CC/C4=N\O)[nH]2)cc1` had a % of control of 54%.

Turning to `C=CC(=O)Nc1cc(-n2c(=O)ccc3cnc4ccc(-c5ccc(NS(C)(=O)=O)cc5)cc4c32)ccc1C`, the % of control in [4] (at 1 µM) turned out to be 89%; in assay [4] (at 10 µM) it was 92%. In [5], `O=C(NOC[C@H](O)CO)c1ccc(F)c(F)c1Nc1ccc(I)cc1F` had a % of control of 94%. `CNC(=O)Nc1ccc(-c2nc(N3CC4CCC(C3)O4)c3cnn(C4CCC5(CC4)OCCO5)c3n2)cc1`: in assay [6], the % of inhibition was determined as 12%. As to `CC[C@@H]1[C@H](F)C(=O)N[C@@H]1COc1nccc2cc(C(N)=O)c(OC)cc12` [ZIMLOVISERTIB], the % of inhibition came to 5% in assay [7] and 58.9% in assay [8]. The compound `O[C@H]1CC[C@H](Nc2ncc3nc(Nc4c(F)cc(F)cc4F)n([C@H]4CCOC4)c3n2)CC1` gave a % of control in assay [9] of 97%.
